Assay results from patent US20110039784A1, “COMPOSITION FOR TREATMENT OF ERECTILE DYSFUNCTION” (SUNGKYUNKWAN UNIVERSITY Foundation for Corporate …, priority 2009, published 2011).
Positions count from the first letter of the chain named. Ends that are not written are not given here.

Assays:
[1] = tested on: corporal smooth muscle cells; test: Fura-2 intracellular calcium level in cultured corporal smooth muscle cells, ET-1 induced; assay type: cell-based, human; settings: control corporal smooth muscle cells, n=3
Procedure: After fura-2 was loaded thereto, cultured corporal smooth muscle cells were measured for intracellular calcium levels. The extracellular addition of 50 nM endothelin-1 induced an increase in intracellular calcium level, with the separation of an initial increasing phase and a late constant phase (FIG. 7A).
Between the TRPC6 cDNA-transfected cells and the control cells, there are little differences in the initial phase. […] Intracellular calcium levels were also measured in the corporal smooth muscle cells where the dominant negative form of TRPC6 was expressed. […] Collectively, F340/380, accounting for ET-1-induced calcium increase, was measured to be 1.47±0.03 (n=3) in corporal smooth muscle cells (control), 1.53±0.09 (n=3) in corporal smooth muscle cells where TRPC6 was overexpressed, and 0±0 (n=3) in corporal smooth muscle cells where the dominant negative form of TRPC6 was expressed (FIG. 7D).

maxi-K ion channel [2] = test: Whole-cell patch clamp in human corporal smooth muscle cells expressing rslo gene; assay type: cell-based, rat; settings: rslo-expressed human corporal smooth muscle cells
Source text: As described with HEK cells, the rslo pcDNA was expressed. The ion channels were examined for activity using a whole-cell patch clamp technique. Under the condition of a pipette solution having a calcium concentration of pCa 6.5, the current was 60.1±7.2 pA/pF (n=22) at a membrane potential of +60 mV in the rslo-expressed cells, which increased in outward current four-fold compared to that of control (16.4±2 pA/pF n=9) (FIG. 9A). Under the condition of an intracellular calcium concentration of pCa 7, the current was 12.8±2 pA/pF (+60 mV, n=9) in the control and 38.1±7 pA/pF (+60 mV, n=13) in the rslo-expressed cells (FIG. 9B). […] The current-voltage (I-V) relationship was similar to that recorded in the HEK cells.

maxi-K ion channel [3] = molecular target: T1, maxi-K ion channel (Rattus norvegicus, UniProt Q62976); test: Whole-cell patch clamp in HEK 293 cells expressing rslo gene; assay type: cell-based; settings: rslo-expressed HEK cells
T1 construct: GFP; expressed in transfected cells; host or cells: HEK 293
Source text: The maxi-K ion channel is known to play an important role in reducing the contraction of smooth muscle responsible for the modulation of penile erection and relaxation. Together with GFP, the α-subunit (rSlo) coding sequence of calcium-dependent potassium ion channel cloned from the rat brain was subcloned into pcDNA3.1(+). After the expression of rSlo gene in HEK cells, green-fluorescent cells were selected under a mercury lamp light and observed for the electrophysiological properties of the ion channels using a whole-cell patch clamp technique. Cells were used within 24˜48 hrs after expression. […] At an intracellular calcium level of pCa 7, the current was read 10.4±3.2 pA/pF (+60 mV, n=6) in the control and 100.5±15.4 pA/pF (n=6) in the rslo-expressed cells (FIG. 8B).

TRPC6 ion channel [4] = molecular target: T2, TRPC6 ion channel (Mus musculus, UniProt Q61143); test: Whole-cell patch clamp in HEK 293 cells transfected with wild-type TRPC6; assay type: cell-based; settings: for whole-cell current at −100 mV: TRPC6-transfected HEK cells, n=5; for change of whole-cell current on application: membrane potential held at −60 mV, symmetrical 140 mM Cs, 200 μM PE or 100 μM CCh
T2 construct: expressed in transfected cells; host or cells: HEK 293
T2 sequence (Q61143 1-930): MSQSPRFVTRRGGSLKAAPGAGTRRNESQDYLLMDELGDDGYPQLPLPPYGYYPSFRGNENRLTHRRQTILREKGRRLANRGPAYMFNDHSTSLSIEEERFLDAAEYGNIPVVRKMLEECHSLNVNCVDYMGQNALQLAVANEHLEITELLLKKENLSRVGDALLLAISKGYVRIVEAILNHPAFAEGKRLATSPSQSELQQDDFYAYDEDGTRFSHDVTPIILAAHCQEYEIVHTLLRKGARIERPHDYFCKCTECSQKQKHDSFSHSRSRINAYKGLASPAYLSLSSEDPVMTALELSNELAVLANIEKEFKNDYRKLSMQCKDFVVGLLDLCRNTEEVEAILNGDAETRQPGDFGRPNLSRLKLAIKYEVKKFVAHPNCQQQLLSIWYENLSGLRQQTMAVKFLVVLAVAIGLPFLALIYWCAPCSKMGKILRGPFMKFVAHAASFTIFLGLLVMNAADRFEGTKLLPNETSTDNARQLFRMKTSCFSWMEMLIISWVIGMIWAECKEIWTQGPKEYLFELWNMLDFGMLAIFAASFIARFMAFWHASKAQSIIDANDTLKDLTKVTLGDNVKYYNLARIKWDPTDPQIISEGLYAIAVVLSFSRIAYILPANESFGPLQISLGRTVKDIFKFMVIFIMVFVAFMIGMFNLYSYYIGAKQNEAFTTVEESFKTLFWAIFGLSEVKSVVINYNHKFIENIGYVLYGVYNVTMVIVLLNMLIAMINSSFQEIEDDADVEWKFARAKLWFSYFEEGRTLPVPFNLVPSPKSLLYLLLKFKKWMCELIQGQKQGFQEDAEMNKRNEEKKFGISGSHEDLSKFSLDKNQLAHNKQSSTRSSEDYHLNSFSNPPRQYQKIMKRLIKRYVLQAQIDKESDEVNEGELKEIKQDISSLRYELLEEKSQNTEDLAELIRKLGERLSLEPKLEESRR
Procedure: The physiological function of the TRPC6 ion channel was examined in HEK cells which are free of ion channels. In this regard, GFP-TRPC6 pcDNA was transfected into HEK cells using a liposome and expressed therein. After the membrane potential was held at −60 mV, whole-cell currents were recorded in symmetrical 140 mM Cs conditions. […] At −100 mV, the current was −112.0±18.1 pA (n=5) in a 140 mM extracellular Cs condition, −90.0±15.0 pA (n=5) after adding 200 μM PE, and −460±169.5 pA (n=5) after adding 100 μM CCh. […] The PE/CCh-induced current was obtained after leak subtraction was performed (FIG. 3C).

TRPC6 ion channel [5] = molecular target: T3, TRPC6 ion channel (Mus musculus, UniProt Q61143); test: Whole-cell patch clamp in human corporal smooth muscle cells transfected with wild-type or dominant negative TRPC6; assay type: cell-based; settings: after ET-1, 1 mM La^3+
T3 construct: expressed in transfected cells; host or cells: human corporal smooth muscle cells
T3 sequence (Q61143 1-930 A105V/R114W/A184S/Y371D/R436P/G437R/T905S): T2 sequence (Q61143 1-930) with A105V, R114W, A184S, Y371D, R436P, G437R, T905S
Procedure: As described with HEK cells, the wild-type TRPC6 cDNA was expressed. After being selected, green-fluorescent cells were examined for the activity of the ion channel using a whole-cell patch clamp technique. At the −60 mV holding membrane potential with the external solution changed from Na-rich normal tyrode solution to 140 mM Cs, the inward current was increased; whereas no currents changed upon external treatment with ET-1, a typical inducer of smooth muscle contraction. At −100 mV, the current was −535.9±162.4 pA (n=5) in 140 mM extracellular Cs, and −462.1±150.5 pA (n=5) after adding 100 nM ET-1. The current-voltage (I-V) relationship of corporal smooth muscle cells was similar to that of HEK cells activated by CCh. […] (FIG. 4)
For genetic regulation of the TRPC6 ion channel in corporal smooth muscle cells, the cells transfected with the dominant negative form of the TRPC6 ion channel were examined for electrophysiological function.

T1 sequence (Q62976 whole entry): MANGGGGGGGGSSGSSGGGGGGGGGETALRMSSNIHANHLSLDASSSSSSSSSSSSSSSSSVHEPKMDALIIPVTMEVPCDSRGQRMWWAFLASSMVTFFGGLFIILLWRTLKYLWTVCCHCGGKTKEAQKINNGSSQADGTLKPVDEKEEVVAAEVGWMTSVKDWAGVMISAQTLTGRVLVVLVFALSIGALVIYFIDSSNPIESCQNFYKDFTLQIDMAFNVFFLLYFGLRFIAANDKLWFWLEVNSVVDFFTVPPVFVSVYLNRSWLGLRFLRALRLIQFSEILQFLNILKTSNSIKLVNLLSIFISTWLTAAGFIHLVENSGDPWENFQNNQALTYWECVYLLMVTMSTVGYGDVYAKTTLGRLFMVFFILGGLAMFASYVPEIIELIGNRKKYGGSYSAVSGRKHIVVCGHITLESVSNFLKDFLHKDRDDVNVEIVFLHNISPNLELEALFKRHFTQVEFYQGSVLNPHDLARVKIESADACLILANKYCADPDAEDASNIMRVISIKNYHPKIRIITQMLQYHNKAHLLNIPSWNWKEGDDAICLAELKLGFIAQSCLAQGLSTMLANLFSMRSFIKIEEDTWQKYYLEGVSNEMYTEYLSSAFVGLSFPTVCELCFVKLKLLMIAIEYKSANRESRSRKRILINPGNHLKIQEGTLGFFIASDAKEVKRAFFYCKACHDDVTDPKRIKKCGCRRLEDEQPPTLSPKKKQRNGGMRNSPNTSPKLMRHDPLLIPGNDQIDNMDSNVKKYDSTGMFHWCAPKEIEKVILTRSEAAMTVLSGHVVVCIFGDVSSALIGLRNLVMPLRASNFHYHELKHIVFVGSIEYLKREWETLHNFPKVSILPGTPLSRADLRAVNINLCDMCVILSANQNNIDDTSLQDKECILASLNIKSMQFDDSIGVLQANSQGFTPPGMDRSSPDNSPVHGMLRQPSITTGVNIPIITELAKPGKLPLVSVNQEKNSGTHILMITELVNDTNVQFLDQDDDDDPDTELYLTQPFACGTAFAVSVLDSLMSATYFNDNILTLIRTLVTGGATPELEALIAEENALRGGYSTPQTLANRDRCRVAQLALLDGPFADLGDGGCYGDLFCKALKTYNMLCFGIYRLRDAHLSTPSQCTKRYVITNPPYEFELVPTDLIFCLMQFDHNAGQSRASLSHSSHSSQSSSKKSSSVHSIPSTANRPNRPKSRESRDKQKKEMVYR

## endothelin-1 (CSCSSLMDKECVYFCHLDIIW; ends and bridges not checked; cysteine pairing not given here; UniProt P05305 53-73, looked up) [ET-1, a typical inducer of smooth muscle contraction]
[1]
  F340/380, accounting for ET-1-induced calcium increase: 1.47±0.03

## CC[N+](CC)(CC)CC [TEA]
maxi-K ion channel [2]
  effect on outward current: decreased in a dose-dependent manner
maxi-K ion channel [3]
  effect on outward current: decreased in a dose-dependent manner

## CNC[C@H](O)c1cccc(O)c1 [PE, phenylephrine]
TRPC6 ion channel [4]; after adding 200 μM PE
  whole-cell current at −100 mV: −90.0±15.0 pA
TRPC6 ion channel [4]
  change of whole-cell current on application: nearly no currents changed

## C[N+](C)(C)CCOC(N)=O [CCh, carbachol]
TRPC6 ion channel [4]; after adding 100 μM CCh
  whole-cell current at −100 mV: −460±169.5 pA
TRPC6 ion channel [4]
  change of whole-cell current on application: increased inward currents

## [La+3] [La^3+]
TRPC6 ion channel [5]
  effect on current: completely decreased
